# Tests used:
# CCRF-CEM [1] = assay: Effective concentration of compound against HIV-2 infected CEM/O cells; No activity up to > 250 uM; format: functional, cell-based, Homo sapiens
# CCRF-CEM [2] = assay: Cytotoxic activity was evaluated against CEM/O cells; No activity up to > 250 uM; format: functional, cell-based, Homo sapiens
# CCRF-CEM [3] = assay: Effective concentration of compound against HIV-1 infected CEM/O cells; No activity up to > 250 uM; format: functional, cell-based, Homo sapiens
# CCRF-CEM [4] = assay: Cytotoxic activity was evaluated against CEM/O cells; format: functional; conditions: Homo sapiens
# CCRF-CEM [5] = assay: Effective concentration of compound against HIV-1 infected CEM/O cells; format: functional, cell-based; conditions: Homo sapiens
# CCRF-CEM [6] = assay: Effective concentration of compound against HIV-2 infected CEM/O cells; format: functional, cell-based; conditions: Homo sapiens
# [7] = Partition coefficient was measured in 1-octanol/phosphate buffer (pH 6.8); format: physicochemical
# [8] = Hydrolysis half-life (t1/2) in phosphate buffer at pH 7.3; format: ADME
Compound,EC50 (CCRF-CEM [1]),EC50 (CCRF-CEM [2]),EC50 (CCRF-CEM [3]),CC50 (CCRF-CEM [4]) [nM],EC50 (CCRF-CEM [5]) [nM],EC50 (CCRF-CEM [6]) [nM],logD [7],half-life [8] [h]
COc1ccc(CO)c(O)c1,Not Active,Not Active,Not Active,,,,,
Nc1ncnc2c1ncn2[C@H]1CC[C@@H](CO)O1,,,,200000,3670,5330,-0.28,
Cc1cccc2c1OP(=O)(OCC1CCC(n3cnc4c(N)ncnc43)O1)OC2 (stereo not drawn),,,,9540,30,35,0.91,35.1
OCc1ccccc1O [SALICYL ALCOHOL],Not Active,Not Active,Not Active,,,,,
Nc1ncnc2c1ncn2C1CCC(COP2(=O)OCc3ccccc3O2)O1 (stereo not drawn),,,,21900,120,110,0.54,8.2
COc1ccc2c(c1)COP(=O)(OCC1CCC(n3cnc4c(N)ncnc43)O1)O2 (stereo not drawn),,,,30400,65,90,0.61,14
Cc1cccc(O)c1CO,Not Active,Not Active,Not Active,,,,,

# From ChEMBL document CHEMBL1130460, “ADA-Bypass by lipophilic cycloSal-ddAMP pro-nucleotides A second example of the efficiency of the cycloSal-Concept” (Bioorg Med Chem Lett, 1997)
